Test results from article PMC9103351, “Effects of the Bark Resin Extract of Garcinia nigrolineata on Chronic Stress-Induced Memory Deficit in Mice Model and the In Vitro Monoamine Oxidases and β-Amyloid Aggregation Inhibitory Activities of Its Prenylated Xanthone Constituents” (Molecules, 2022).

How the values were obtained:
UCMS mice [1] = assay: Lipid peroxidation (TBARs, MDA) in frontal cortex and hippocampus of UCMS mice; type: in vivo, ICR mice; conditions: 100 mg/kg/day
Description: (§1) Five-week-old male ICR mice (weight: 20–30 g), which were acquired from Nomura Siam International (Pathumwan, Bangkok, Thailand), were maintained at the Animal Unit of the Faculty of Pharmaceutical Sciences, Khon Kaen University. Mice were cared for in accordance with the Guiding Principles for the Care and Use of Animals (NIH Publications No. 80–23, revised in 2011). The facilities sustained a 12 h light/dark cycle, constant temperature (22 ± 2 °C), and humidity (45 ± 2%), with full access to food and drink. The current research was authorized by the Animal Ethics Committee for Use and Care of Khon Kaen University (IACUC-KKU-121/64)
(§2) Mice in the stress groups received mild stressors for 6 weeks. […]
The lipid peroxidation was measured in the homogenates of the hippocampus and frontal cortex by using TBARs assay as previously described by Khamphukdee et al.. […] The intensity of the pink-colored complex MDA-TBA condensation indicated the extent of a lipid peroxidation, and their protein contents were quantified by the Bradford assay. The absorbance of the MDA-TBA complex was measured by UV/Visible spectrophotometer (Perkin Elmer Inc., Waltham, MA, USA) at 532 nm. Levels of the MDA were calculated from the MDA standard and presented as nmol MDA/mg protein.

UCMS mice [2] = assay: Novel Object Recognition Test (NORT) in UCMS mice; type: in vivo, ICR mice; conditions: 100 mg/kg/day p.o.
Description: as §1, §2
The NORT is used to investigate the spatial recognition memory associated with the ability to discriminate between two sets of objects that differ in texture, color, and shape. […] The mouse was free to explore the objects for 5 min and the total time spent exploring each object and the percentage discrimination index were recorded. […] The exploration ratio was calculated according to the following equation:% Discrimination index = [(TN − TF)/(TN + TF)] × 100 where, TN = time devoted to the novel object, TF = time devoted to the familiar object.

vitamin E
UCMS-induced lipid peroxidation (MDA level) (UCMS mice [1]): significant neuroprotection | discrimination index performance (NORT test phase) (UCMS mice [2]): significantly ameliorated
